This note sets out measurements from patent US11040959B2, “Diprovocims: a new and potent class of TLR agonists” (The Scripps Research Institute, priority 2016, dated 2021).

Assay [1] relates to differentiated human THP-1 cells. Briefly: stimulated release of TNF-α from differentiated human THP-1 cells (ELISA, dose-response). The format is cell-based. The method, boiled down: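 Human THP-1 cells were PMA-differentiated toward macrophages, and stimulated TNF-α release was measured by ELISA. EC50 values were taken from dose-response curves.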
Background: ELISA stands for enzyme-linked immunosorbent assay.

In another assay the test system is mouse macrophages. Briefly: stimulated release of TNF-α from mouse macrophages. The format is cell-based. The following applies: for EC50: Macrophage. Put shortly:
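EC50 derived from dose-response curves for stimulated TNF-α release from mouse macrophages.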

Where [2] appears, read: table of 125-132 (one lipid side chain, R and S), mouse macrophages, read-out: EC50 (nM) (mouse).
Setting [3] is: Homo sapiens, THP-1, table of 125-132 (one lipid side chain, R and S), human THP-1 cells, read-out: EC50 (nM) (THP-1).

Where two headings read alike, the source gives them in different places.

With `O=C(NCCc1ccc(F)cc1)[C@H]1CN(C(=O)c2ccc(C(=O)N3C[C@@H](C(=O)N[C@H]4C[C@@H]4c4ccccc4)[C@H](C(=O)N[C@H]4C[C@@H]4c4ccccc4)C3)cc2)C[C@@H]1C(=O)NCCc1ccc(F)cc1` [Compound 115], the “fold less active than 114 in human THP-1 cells” value in assay [1] (human THP-1 cells) is 5 fold. Besides, in the assay with mouse macrophages (tested up to 5 μM where stated), the “activity in stimulating TNF-α release from mouse macrophages (in words)” value was “inactive”.

As for `O=C(NC1C[C@@H]1c1ccc(F)cc1)[C@@H]1CN(C(=O)c2ccc(C(=O)N3C[C@@H](C(=O)NC4C[C@@H]4c4ccc(F)cc4)[C@H](C(=O)NC4C[C@@H]4c4ccc(F)cc4)C3)cc2)C[C@H]1C(=O)NC1C[C@@H]1c1ccc(F)cc1` (stereo partly drawn) [Compound 118, (3S,3′S,4S,4′S)-1,1′-Terephthaloyl-bis(N^3,N^4-bis-((1S,2R)-2-(4-fluorophenyl)cyclopropyl)pyrrolidine-3,4-dicarboxamide)], the concentration giving a half-maximal response (EC50) is 0.13 nM in assay [1] (Homo sapiens, THP-1, running text, read-out: EC50, stimulated release of TNF-α from differentiated human THP-1 cells) and 1.2 nM with mouse macrophages (Mus musculus, read-out: EC50, stimulated release of TNF-α from mouse macrophages).

As for `CCCCCCCCCCCCCCCCNC(=O)[C@@H]1CCN(C(=O)c2ccc(C(=O)N3C[C@@H](C(=O)N[C@H]4C[C@@H]4c4ccccc4)[C@H](C(=O)N[C@H]4C[C@@H]4c4ccccc4)C3)cc2)C1` [Compound 125, (3S,4S)-1-(4-((R)-3-(Hexadecylcarbamoyl)-pyrrolidine-1-carbonyl)benzoyl)-N^3,N^4-bis((1S,2R)-2-phenylcyclopropyl)pyrrolidine-3,4-dicarboxamide], the concentration for a half-maximal effect (EC50) in assay [1] (table of 125-132 (one lipid side chain, R and S), human THP-1 cells, read-out: EC50 (nM) (THP-1)) is 15 nM; in the assay on mouse macrophages (setting [2]), above 5000 nM.

For the compound `CCCCCCCCCCCCCCNC(=O)[C@@H]1CCN(C(=O)c2ccc(C(=O)N3C[C@@H](C(=O)N[C@H]4C[C@@H]4c4ccccc4)[C@H](C(=O)N[C@H]4C[C@@H]4c4ccccc4)C3)cc2)C1` [Compound 126, (3S,4S)—N^3,N^4-Bis((1S,2R)-2-phenylcyclopropyl)-1-(4-((R)-3-(tetradecylcarbamoyl)pyrrolidine-1-carbonyl)benzoyl)pyrrolidine-3,4-dicarboxamide], the concentration for a half-maximal effect (EC50) in assay [1] (setting [3]) stood at 2 nM; with mouse macrophages (setting [2]), 260 nM.

In the case of `CCCCCCCCCCCCNC(=O)[C@@H]1CCN(C(=O)c2ccc(C(=O)N3C[C@@H](C(=O)N[C@H]4C[C@@H]4c4ccccc4)[C@H](C(=O)N[C@H]4C[C@@H]4c4ccccc4)C3)cc2)C1` [Compound 127, (3S,4S)-1-(4-((R)-3-(Dodecylcarbamoyl)-pyrrolidine-1-carbonyl)benzoyl)—N^3,N^4-bis((1S,2R)-2-phenylcyclopropyl)pyrrolidine-3,4-dicarboxamide], the figures for the 50% effective concentration (EC50) (in assay [1] (setting [3]); in the assay on mouse macrophages (setting [2])) were 9 nM and 700 nM, respectively.

In the case of `CCCCCCCCCCNC(=O)[C@@H]1CCN(C(=O)c2ccc(C(=O)N3C[C@@H](C(=O)N[C@H]4C[C@@H]4c4ccccc4)[C@H](C(=O)N[C@H]4C[C@@H]4c4ccccc4)C3)cc2)C1` [Compound 128, (3S,4S)-1-(4-((R)-3-(Decylcarbamoyl)pyrrolidine-1-carbonyl)benzoyl)—N^3,N^4-bis((1S,2R)-2-phenyl-cyclopropyl)pyrrolidine-3,4-dicarboxamide], the EC50 in assay [1] (setting [3]) stood at 210 nM; in the assay on mouse macrophages (setting [2]), 2400 nM.

Regarding `CCCCCCCCCCCCCCNC(=O)[C@H]1CCN(C(=O)c2ccc(C(=O)N3C[C@@H](C(=O)N[C@H]4C[C@@H]4c4ccccc4)[C@H](C(=O)N[C@H]4C[C@@H]4c4ccccc4)C3)cc2)C1` [Compound 130, (3S,4S)—N^3,N^4-Bis((1S,2R)-2-phenylcyclopropyl)-1-(4-((S)-3-(tetradecylcarbamoyl)pyrrolidine-1-carbonyl)benzoyl)pyrrolidine-3,4-dicarboxamide], the figures for the concentration for a half-maximal effect (EC50) (in assay [1] (setting [3]); with mouse macrophages (setting [2])) were 4 nM and 240 nM, respectively.

For the compound `CCCCCCCCCCCCNC(=O)[C@H]1CCN(C(=O)c2ccc(C(=O)N3C[C@@H](C(=O)N[C@H]4C[C@@H]4c4ccccc4)[C@H](C(=O)N[C@H]4C[C@@H]4c4ccccc4)C3)cc2)C1` [Compound 131, (3S,4S)-1-(4-((S)-3-(Dodecylcarbamoyl)-pyrrolidine-1-carbonyl)benzoyl)—N^3,N^4-bis((1S,2R)-2-phenylcyclopropyl)pyrrolidine-3,4-dicarboxamide], the values for the EC50 (in assay [1] (setting [3]); with mouse macrophages (setting [2])) were 4 nM and 1000 nM, respectively.

Broadly, the EC50 is the concentration at which the effect is half-maximal.
